Reference: patent publication US8772499B2, “TRPV3 modulators” (AbbVie Inc., priority 2011, dated 2014)
Read-outs that look alike come from different tables or passages of the source.

Assays:
[1] = In vitro rat microsomal stability assay; format: in vitro ADME, rat (Sprague-Dawley); conditions: for RAT MICROSOMAL STABILITY (% REMAINING AFTER 30 MINUTES): Sprague-Dawley, microsomes, 0.5 h, 0.5 μM, pH 7.4
Summary of the method: (§1)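 Incubations ran at 37° C. in microsomal preparations of rat (Sprague-Dawley) or human liver, with NADPH present, including at time zero.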

[2] = In vitro human microsomal stability assay; format: in vitro ADME; conditions: for HUMAN MICROSOMAL STABILITY (% REMAINING AFTER 30 MINUTES): microsomes, 0.5 h, 0.5 μM, pH 7.4
Summary of the method: as §1

[3] = test system: chronic constriction injury (CCI) model of neuropathic pain; assay: In vivo chronic constriction injury (CCI) model of neuropathic pain, mechanical allodynia (von Frey); design: species or system CD1 mice; conditions: 100 mg/kg oral dose, mechanical allodynia 1 hour after dosing, CCI mice, average of eight mice, vehicle 0%, control 100%; for inhibition in vivo at 100 mg/kg: Mus musculus, po, 1 h, read-out: % EFFECT
Description: Test compounds were evaluated for analgesic effect in an in vivo chronic constriction injury (CCI) model of neuropathic pain. CD1 mice (Charles River) were used for these studies. Prior to testing (2-4 weeks) animals underwent a surgical procedure consisting of approximately 3 loose ligatures around the sciatic nerve. Following sterilization procedures, under isofluorane anesthetic, a 1.5 cm incision was made dorsal to the pelvis. The biceps femoris and gluteous superficialis (right side) were separated and the sciatic nerve exposed, isolated, and 2-4 loose ligatures (5-0 chromic gut) with less than 1 mm spacing were placed around it. Following hemostasis, the wound was sutured (layer of muscle closed with 5-0 nylon suture, and the wound closed with surgical staples) and coated with iodine. The mice were allowed to recover on a warming plate and were returned to their home cages (soft bedding) when able to walk on their own.
Two to four weeks after the surgery, test compound was administered orally (PO) in these mice, and mechanical allodynia was evaluated 1 hour after oral dosing where the threshold to response was assessed using calibrated von Frey monofilaments. The von Frey monofilaments were applied to the hind paw at increasing forces until the animal responded by lifting its paw. Normally, the force of the von Frey monofilament was innocuous and only in the altered state (allodynia or hyperalgesia) did the animals respond to this stimulation. […] At the end of the experiment, after behavioral testing, plasma (and in some instances brain tissue) was taken for exposure analysis.
Each test compound was evaluated in eight different mice. The data reported in Table 3 represent the average value of the approximate percent effect of each compound in relieving neuropathic pain in mice receiving 100 mg/kg oral dose of the test compound. The grams of force needed to elicit a withdrawal response from the injured mouse that was challenged with vehicle was assigned a 0% effect, while the grams of force needed to elicit a withdrawal response from the control was given a 100% effect.

human TRPV3 = molecular target: T1, human TRPV3 (Homo sapiens, UniProt Q8NET8); assay: In vitro antagonism of recombinant human TRPV3 activation (FLIPR Tetra calcium assay); format: cell-based; conditions: HEK293 cells stably expressing human TRPV3, agonist 2-APB at 80 μM
T1 construct: expressed in transfected cells
T1 sequence (Q8NET8 1-790): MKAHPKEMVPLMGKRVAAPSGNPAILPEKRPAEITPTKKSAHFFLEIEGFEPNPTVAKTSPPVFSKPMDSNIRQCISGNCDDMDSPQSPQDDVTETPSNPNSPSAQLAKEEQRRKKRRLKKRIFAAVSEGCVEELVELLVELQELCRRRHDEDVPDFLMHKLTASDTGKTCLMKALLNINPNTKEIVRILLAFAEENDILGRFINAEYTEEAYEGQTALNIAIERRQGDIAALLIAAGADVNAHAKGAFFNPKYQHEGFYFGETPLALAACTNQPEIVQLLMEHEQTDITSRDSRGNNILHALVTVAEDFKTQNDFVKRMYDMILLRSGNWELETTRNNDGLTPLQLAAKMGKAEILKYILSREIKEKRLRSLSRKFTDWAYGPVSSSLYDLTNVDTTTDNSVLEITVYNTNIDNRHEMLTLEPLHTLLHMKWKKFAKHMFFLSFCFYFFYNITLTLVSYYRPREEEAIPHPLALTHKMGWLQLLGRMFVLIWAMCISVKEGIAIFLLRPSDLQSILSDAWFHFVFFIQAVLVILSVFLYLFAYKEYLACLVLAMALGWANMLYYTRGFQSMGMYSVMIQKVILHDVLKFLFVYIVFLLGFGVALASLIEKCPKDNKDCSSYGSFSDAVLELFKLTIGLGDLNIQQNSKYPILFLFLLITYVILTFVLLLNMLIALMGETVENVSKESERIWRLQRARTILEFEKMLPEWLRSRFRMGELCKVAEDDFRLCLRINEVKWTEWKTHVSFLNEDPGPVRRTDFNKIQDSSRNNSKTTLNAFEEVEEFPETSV
Summary of the method: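 Calcium flux read over a 10 min run: compound added at 10 s to Calcium-4-loaded human TRPV3-HEK293 cells, agonist 2-APB (80 μM, its EC80) after 3 min. IC50 derived from peak-minus-baseline signal as percentage of uninhibited 2-APB response, typically averaged over at least two runs.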

[4] = actual measured value shown parenthetically, in most cases average of at least two runs, read-out: IC50
[5] = reported range, read-out: IC50 (range class)

Compound	RAT […] (% REMAINING AFTER 30 MINUTES) ([1]; rat liver microsomes (Sprague-Dawley), 0.5 μM substrate, 0.25 mg/mL microsomal protein, pH 7.4, 37° C., NADPH, 30 minutes) [%]	HUMAN […] (% REMAINING AFTER 30 MINUTES) ([2]; human liver microsomes, 0.5 μM substrate, 0.25 mg/mL microsomal protein, pH 7.4, 37° C., NADPH, 30 minutes) [%]	% EFFECT [3] [%]	IC50 (human TRPV3; [4]) [nM]	IC50 (human TRPV3; [5]) [nM]	RAT MICROSOMAL STABILITY (% REMAINING AFTER 30 MINUTES) [1] [%]	HUMAN MICROSOMAL STABILITY (% REMAINING AFTER 30 MINUTES) [2] [%]	inhibition in vivo at 100 mg/kg [3] [%]
C[C@]1(O)C[C@](c2cc(C(F)(F)F)ccn2)([C@H](O)c2ccccn2)C1 (relative stereo) [Example 285, cis-3-[(S)-hydroxy(pyridin-2-yl)methyl]-1-methyl-3-[4-(trifluoromethyl)-pyridin-2-yl]cyclobutanol]	69	83	59	1000	501 to 1000	–	–	–
OC1CC(c2ccc(Cl)c(Cl)c2)(C(O)c2ccccn2)C1 (single isomer, unassigned) [Example 118]	–	–	89	220	–	74	>85	–
OC1CC(c2ccc(Cl)c(Cl)c2)(C(O)c2ccccn2)C1 (single isomer, unassigned) [Example 119]	–	–	16	570	–	69	>85	–
CC1(O)CC(c2ccc(OC(F)(F)F)cc2)(C(O)c2ccccn2)C1 (single isomer, unassigned) [Example 134]	–	–	–	860	–	72	78	98
CC1(O)CC(c2ccc(C(F)(F)F)cc2)(C(O)c2ccccn2)C1 (single isomer, unassigned) [Example 232]	–	–	–	1950	–	67	80	65
CC1(O)CC(c2cccc(C(F)(F)F)c2)(C(O)c2ccccn2)C1 (single isomer, unassigned) [Example 236]	–	–	–	760	–	41	54	33
O[C@H](c1ccccn1)C1(c2ccc(OC(F)(F)F)cc2)CC(F)(F)C1 [Example 128, (S)-{3,3-difluoro-1-[4-(trifluoromethoxy)phenyl]cyclobutyl}(pyridin-2-yl)-methanol]	–	–	–	110	–	67	59	78
O[C@H](c1ccccn1)[C@]1(c2ccc(Cl)c(Cl)c2)CCO1 [Example 136, (R)-[(2R)-2-(3,4-dichlorophenyl)oxetan-2-yl](pyridin-2-yl)methanol]	–	–	–	390	–	9.5	24	52
OC1CC(c2ccc(C(F)(F)F)cc2)(C(O)c2ccccn2)C1 [Example 201, trans-3-[(S)-hydroxy(pyridin-2-yl)methyl]-3-[4-(trifluoromethyl)phenyl]-cyclobutanol]	–	–	–	6010	–	>85	73	64
CN[C@@H]1CCC[C@H]1[C@@H](O)C1(c2ccc(Cl)c(Cl)c2)CCC1 [Example 228, (R)-[1-(3,4-dichlorophenyl)cyclobutyl][(1R,2R)-2-(methylamino)-cyclopentyl]methanol]	–	–	–	2520	–	25	70	52
C[C@]1(O)C[C@@](c2ccc(OC(F)(F)F)cc2)([C@@H](O)c2ccccn2)C1 [Example 250, cis-3-[(R)-hydroxy(pyridin-2-yl)methyl]-1-methyl-3-[4-(trifluoromethoxy)-phenyl]cyclobutanol]	–	–	–	9230	–	70	70	57
C[C@]1(O)C[C@@](c2cccc(OC(F)(F)F)c2)([C@H](O)c2ccccn2)C1 [Example 262, cis-3-[(S)-hydroxy(pyridin-2-yl)methyl]-1-methyl-3-[3-(trifluoromethoxy)-phenyl]cyclobutanol]	–	–	–	630	–	57	48	45
O=C1CC(c2ccnc(C(F)(F)F)c2)([C@H](O)c2ccccn2)C1 [Example 299, 3-[(S)-hydroxy(pyridin-2-yl)methyl]-3-[2-(trifluoromethyl)pyridin-4-yl]-cyclobutanone]	–	–	–	> 20000	> 20000	>85	>85	–
OC(c1ccccn1)C1(c2nc3ccc(F)cc3s2)CCC1 (stereo not drawn) [Example 300, [1-(6-fluoro-1,3-benzothiazol-2-yl)cyclobutyl](pyridin-2-yl)methanol]	–	–	–	4920	–	0.020	35	–
OC(c1ccccn1)C1(c2nc3ccc(Cl)cc3o2)CCC1 (stereo not drawn) [Example 301, [1-(6-chloro-1,3-benzoxazol-2-yl)cyclobutyl](pyridin-2-yl)methanol]	–	–	–	6040	–	22	57	–
OC1CC(c2cncc(C(F)(F)F)c2)(C(O)c2ccccn2)C1 [Example 303, cis-3-[(S)-hydroxy(pyridin-2-yl)methyl]-3-[5-(trifluoromethyl)pyridin-3-yl]cyclobutanol]	–	–	–	530	–	32	80	–
OC1CC(c2cncc(C(F)(F)F)c2)(C(O)c2ccccn2)C1 [Example 304, trans-3-[(S)-hydroxy(pyridin-2-yl)methyl]-3-[5-(trifluoromethyl)pyridin-3-yl]cyclobutanol]	–	–	–	250	–	44	>85	–
OC1CC(c2ccnc(C(F)(F)F)c2)(C(O)c2ccccn2)C1 [Example 305, cis-3-[(S)-hydroxy(pyridin-2-yl)methyl]-3-[2-(trifluoromethyl)pyridin-4-yl]-cyclobutanol]	–	–	–	290	–	49	63	–
CC1(O)CC(c2ccc(OC(F)(F)F)cc2)(C(O)c2ncccn2)C1 [Example 310, trans-3-((S)-hydroxy(pyrimidin-2-yl)methyl)-1-methyl-3-(4-(trifluoromethoxy)phenyl)cyclobutanol]	–	–	–	> 20000	> 20000	>85	>85	–
